From publication PMC11809415 (The Journal of Cell Biology, 2025)
Entries after “also recorded” stand apart in the source; their conditions may differ.

Legend:
[1] = target: F-actin; test: High-speed cosedimentation with F-actin (120,000 g), SDS-PAGE densitometry; format: binding, rabbit skeletal muscle α-actin; settings: for Fraction bound: 2 μM mCherry fusion
Procedure: (§1) Rabbit skeletal muscle α-actin was purified from muscle acetone powder (Pel-Freez Biologicals) as described in [Merino et al. (2018)] and stored in 50 μl aliquots at −70°C.
A single colony was inoculated into 200 ml of LB media and grown at 37°C. At OD600 0.6–1.0, protein expression was induced by the addition of IPTG to a final concentration of 0.02 mM. After 16 h of expression at 22°C, the cells were harvested by centrifugation, resuspended in TBS (20 mM Tris pH 8 and 150 mM NaCl), and lysed by sonication. The soluble fraction was applied on TBS-equilibrated Protino Ni-IDA resin (Macherey-Nagel), washed, eluted with TBS supplemented with 250 mM imidazole, dialyzed against TBS, and stored at −20°C.
Freshly thawed mammalian α-actin was spun down at 120,000 g for 20 min at 4°C using a TLA-120.1 rotor, and the supernatant containing G-actin was collected. The protein was then polymerized by incubation in F buffer (120 mM KCl, 20 mM Tris pH 8, 2 mM MgCl2, 1 mM DTT, and 1 mM ATP) for 2 h on ice. Cosedimentation assays were performed in 20 μl volumes by first incubating F-actin with F-tractinopt-mCherry fusions for 5 min at room temperature and then centrifuging at 120,000 g using the TLA-120.1 rotor for 20 min at 4°C. After centrifugation, aliquots of the supernatant and resuspended pellet fractions were separated on SDS-polyacrylamide gels with 2,2,2-trichloroethanol ([Ladner-Keay et al., 2018]), visualized under ultraviolet light, and analyzed by densitometry using ImageJ (RRID:SCR_003070). The Kd values were calculated using GraphPad Prism software (RRID:SCR_002798).

[2] = system: actin (ADP-ribosylation by TcART, Photorhabdus luminescens); test: ADP-ribosylation of actin by TcART in presence of actin-binding peptides; format: biochemical, rabbit skeletal muscle α-actin; settings: for ADP-ribosylation level: relative to no peptide = 1, […] actin, 314 pM TcART, 10 min 37°C; for effect on TcART modification of F-actin (in words): peptides up to 100 µM
Procedure: as §1
TcART, the ADP-ribosyltransferase from P. luminescens Tc toxin, was purified from E. coli BL21-CodonPlus(DE3)-RIPL harboring the plasmid pB656 as described previously ([Belyy et al., 2022]).
A total of 8-μl mixtures of 2 μg (4.8 μM final concentration) actin and actin-binding peptides at specified concentrations were preincubated for 5 min at room temperature in the buffer containing 1 mM NAD, 20 mM Tris pH 8, 150 mM NaCl, and 1 mM MgCl2. The ADP ribosylation reaction was initiated by the addition of 0.2 ng (314 pM) of TcART to the mixture. After 10 min of incubation at 37°C, the reaction was stopped by adding Laemmli sample buffer and heating the sample at 95°C for 5 min. The components of the mixture were separated by SDS-PAGE, blotted onto a polyvinylidene difluoride (PVDF) membrane using a Trans-Blot Turbo Transfer System (Bio-Rad), and visualized using a combination of the His-tagged ADP-ribose binding protein at the concentration of 0.01 mg/ml and HisProbe-HRP conjugate. The level of actin ADP-ribosylation was quantified by densitometry using ImageJ.

[3] = system: U-2 OS cells (phalloidin-stained actin); test: Colocalization with phalloidin in U-2 OS cells (Pearson correlation); format: cell-based, human; settings: EGFP fusions
[4] = system: F-actin; test: Actin bundling assay using low-speed centrifugation (10,000 g); format: biochemical, rabbit skeletal muscle α-actin; settings: for F-actin in the pellet: 10 μM actin filaments, 5 min RT, 10,000 g
Procedure: as §1
8 μl of actin filaments at 10 μM were mixed with peptides at the specified concentration, incubated for 5 min at room temperature, and spun down at 10,000 g for 10 min at 4°C. Aliquots of the supernatant and resuspended pellet fractions were separated on SDS-polyacrylamide gels with 2,2,2-trichloroethanol ([Ladner-Keay et al., 2018]) and visualized with ultraviolet light.

[5] = system: U-2 OS cells (actin fibers); test: Signal-to-noise ratio (fibers/cytosol) in U-2 OS cells; format: cell-based, human; settings: EGFP fusions, compared with WT F-tractin
[6] = system: U-2 OS cells; test: Nuclear signal enrichment in U-2 OS cells; format: cell-based, human; settings: EGFP fusions
[7] = system: U-2 OS cells; test: FRAP recovery half time in U-2 OS cells; format: cell-based, human; settings: EGFP fusions
[8] = system: F-actin; settings: ref Melak et al., 2017; cited from earlier work
From the text: Phalloidin, a cyclic peptide derived from the fungus Amanita phalloides, was one of the first probes used for F-actin labeling ([Wehland et al., 1977]; [Wulf et al., 1979]). […] The need to visualize actin dynamics led to the development of genetically encoded fluorescent probes. Chimeras of green fluorescent protein ... || In live cell imaging experiments, F-tractin is typically used as a fusion of fluorescent proteins. […] However, a comparison of both markers has been largely limited to characterizations in cells ([Belin et al., 2014]; [Spracklen et al., 2014]; [Vosatka et al., 2022]). With structures of both probes in complex with F-actin available, we can now directly compare their actin interactions in atomic detail (Fig. 4, A–C). Both probes are at their core amphipathic helices that bind to overlapping interfaces of consecutive actin subunits, indicating a preference for “aged” A ...

[9] = ref Coluccio and Tilney, 1984; cited from earlier work
From the text: Phalloidin, a cyclic peptide derived from the fungus Amanita phalloides, was one of the first probes used for F-actin labeling ([Wehland et al., 1977]; [Wulf et al., 1979]). […] The need to visualize actin dynamics led to the development of genetically encoded fluorescent probes. Chimeras of green fluorescent protein ...

Question: What does the source list for “APRRSVGELRLLAEARAASAA [F29A F-tractinopt, mCherry fusion in cosedimentation, EGFP fusion in cells]”?
Answer: Kd ([1]; 2 μM probe as mCherry fusion, F-actin titrated, 5 min at room temperature, three independent experiments): > 100 µM; Fraction bound ([1]; F-actin 2 µM, Repeat 1): 0,02963; Fraction bound ([1]; F-actin 2 µM, Repeat 2): 0,031317; Fraction bound ([1]; F-actin 2 µM, Repeat 3): 0,036; Fraction bound ([1]; F-actin 5 µM, Repeat 1): 0,020561; Fraction bound ([1]; F-actin 5 µM, Repeat 2): 0,008869; Fraction bound ([1]; F-actin 5 µM, Repeat 3): 0,001393; Fraction bound ([1]; F-actin 10 µM, Repeat 1): 0,051546; Fraction bound ([1]; F-actin 10 µM, Repeat 2): 0,016783; Fraction bound ([1]; F-actin 10 µM, Repeat 3): 0,023887; Fraction bound ([1]; F-actin 20 µM, Repeat 1): 0,035971; Fraction bound ([1]; F-actin 20 µM, Repeat 2): 0,051087; Fraction bound ([1]; F-actin 20 µM, Repeat 3): 0,050633; Fraction bound ([1]; F-actin 40 µM, Repeat 1): 0,071269; Fraction bound ([1]; F-actin 40 µM, Repeat 2): 0,046373; Fraction bound ([1]; F-actin 40 µM, Repeat 3): 0,065217; affinity for F-actin (in words) ([1]; cosedimentation, mCherry fusions of F-tractinopt variants): barely detectable in the pellet at the highest concentration of F-actin used; ADP-ribosylation level ([2]; peptide 100 µM, Repeat 1): 0,715886; ADP-ribosylation level ([2]; peptide 100 µM, Repeat 2): 1,144903; ADP-ribosylation level ([2]; peptide 100 µM, Repeat 3): 1,162086; effect on TcART modification of F-actin (in words) [2]: did not interfere with TcART modification of F-actin; binding to actin in cells (in words) [3]: completely failed to bind to actin in cells

Question: Which results are given for “APRRSVGELRLLFEARAASAA [F-tractinopt, optimized F-tractin peptide; mCherry fusion in cosedimentation, EGFP fusion in cells]”?
Answer: Fraction bound ([1]; F-actin 2 µM, Repeat 1): 0,113982; Fraction bound ([1]; F-actin 2 µM, Repeat 2): 0,125633; Fraction bound ([1]; F-actin 2 µM, Repeat 3): 0,150215; Fraction bound ([1]; F-actin 5 µM, Repeat 1): 0,211009; Fraction bound ([1]; F-actin 5 µM, Repeat 2): 0,27957; Fraction bound ([1]; F-actin 5 µM, Repeat 3): 0,318841; Fraction bound ([1]; F-actin 10 µM, Repeat 1): 0,480176; Fraction bound ([1]; F-actin 10 µM, Repeat 2): 0,433657; Fraction bound ([1]; F-actin 10 µM, Repeat 3): 0,418605; Fraction bound ([1]; F-actin 20 µM, Repeat 1): 0,569748; Fraction bound ([1]; F-actin 20 µM, Repeat 2): 0,578018; Fraction bound ([1]; F-actin 20 µM, Repeat 3): 0,523474; Fraction bound ([1]; F-actin 40 µM, Repeat 1): 0,557282; Fraction bound ([1]; F-actin 40 µM, Repeat 2): 0,621935; Fraction bound ([1]; F-actin 40 µM, Repeat 3): 0,643478; actin bundling (in words) ([4]; in vitro, up to 100 µM, low-speed centrifugation and cryo-EM): minimal actin bundling; F-actin in the pellet ([4]; peptide 1 µM, Repeat 1): 0,098435; F-actin in the pellet ([4]; peptide 1 µM, Repeat 2): 0,057915; F-actin in the pellet ([4]; peptide 1 µM, Repeat 3): 0,103265; F-actin in the pellet ([4]; peptide 100 µM, Repeat 1): 0,099007; F-actin in the pellet ([4]; peptide 100 µM, Repeat 2): 0,095989; F-actin in the pellet ([4]; peptide 100 µM, Repeat 3): 0,158954; F-actin in the pellet ([4]; peptide 1000 µM, Repeat 1): 0,238373; F-actin in the pellet ([4]; peptide 1000 µM, Repeat 2): 0,117922; F-actin in the pellet ([4]; peptide 1000 µM, Repeat 3): 0,212762; ADP-ribosylation level ([2]; peptide 1 µM, Repeat 1): 1,245716; ADP-ribosylation level ([2]; peptide 1 µM, Repeat 2): 0,95033; ADP-ribosylation level ([2]; peptide 1 µM, Repeat 3): 1,419998; ADP-ribosylation level ([2]; peptide 3 µM, Repeat 1): 1,210256; ADP-ribosylation level ([2]; peptide 3 µM, Repeat 2): 1,296322; ADP-ribosylation level ([2]; peptide 3 µM, Repeat 3): 1,29383; ADP-ribosylation level ([2]; peptide 10 µM, Repeat 1): 0,846657; ADP-ribosylation level ([2]; peptide 10 µM, Repeat 2): 0,728925; ADP-ribosylation level ([2]; peptide 10 µM, Repeat 3): 1,078508; ADP-ribosylation level ([2]; peptide 30 µM, Repeat 1): 0,320904; ADP-ribosylation level ([2]; peptide 30 µM, Repeat 2): 0,220558; ADP-ribosylation level ([2]; peptide 30 µM, Repeat 3): 0,140877; ADP-ribosylation level ([2]; peptide 100 µM, Repeat 1): 0,032604; ADP-ribosylation level ([2]; peptide 100 µM, Repeat 2): 0,100767; ADP-ribosylation level ([2]; peptide 100 µM, Repeat 3): 0,002262; effect on TcART modification of F-actin (in words) [2]: inhibited TcART activity in a similar dose-dependent manner; signal-to-noise ratio between actin fibers and cytosol (in words) [5]: behave very similarly (no; nuclear enrichment (in words) [6]: slightly higher accumulation of F-tractinopt in the nucleus; exchange / recovery in FRAP (in words) [7]: exchanged faster than WT F-tractin; also recorded: FRAP recovery rates

Question: Which results are given for Phalloidin?
Answer: affinity and selectivity for F-actin [8]: high affinity and selectivity for F-actin; membrane permeability [9]: low membrane permeability
